Literature values, collected in patent US20110136913A1, “ASSESSING AND TREATING BREAST CANCER PATIENTS” (priority 2008, published 2011).

Test system: MCF-7 cell lines that stably over express exogenous HER-2
Conditions: MCF-7 cells over expressing HER-2, mouse model

Question: Which “Effect on tumor growth” value does the source give for `CC/C(=C(\c1ccccc1)c1ccc(OCCN(C)C)cc1)c1ccccc1` [tamoxifen] here?
Answer: The value was “potent agonist on tumor growth”.
